The values that follow come from publication PMC6934184, “Selective DNA-PKcs inhibition extends the therapeutic index of localized radiotherapy and chemotherapy” (The Journal of Clinical Investigation, 2019).

The target of this experiment is T1, EGFR (ErbB1) T790M (Homo sapiens, UniProt P00533, T790M).
T1 construct: purchased Thermo Fisher Scientific (Life Technologies) SelectScreen
Kind of experiment: SelectScreen Z'LYTE. Format: biochemical. The method in brief: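 Compound tested in SelectScreen activity assays, Z'LYTE for CSF1R, CDK1/cyclin B and MAP2K6 and Adapta for CAMK1. ATP for CAMK1 was listed as 10, and Km app was used for CSF1R. Results are expressed in percent.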

T1 sequence (P00533 25-1210 T790M): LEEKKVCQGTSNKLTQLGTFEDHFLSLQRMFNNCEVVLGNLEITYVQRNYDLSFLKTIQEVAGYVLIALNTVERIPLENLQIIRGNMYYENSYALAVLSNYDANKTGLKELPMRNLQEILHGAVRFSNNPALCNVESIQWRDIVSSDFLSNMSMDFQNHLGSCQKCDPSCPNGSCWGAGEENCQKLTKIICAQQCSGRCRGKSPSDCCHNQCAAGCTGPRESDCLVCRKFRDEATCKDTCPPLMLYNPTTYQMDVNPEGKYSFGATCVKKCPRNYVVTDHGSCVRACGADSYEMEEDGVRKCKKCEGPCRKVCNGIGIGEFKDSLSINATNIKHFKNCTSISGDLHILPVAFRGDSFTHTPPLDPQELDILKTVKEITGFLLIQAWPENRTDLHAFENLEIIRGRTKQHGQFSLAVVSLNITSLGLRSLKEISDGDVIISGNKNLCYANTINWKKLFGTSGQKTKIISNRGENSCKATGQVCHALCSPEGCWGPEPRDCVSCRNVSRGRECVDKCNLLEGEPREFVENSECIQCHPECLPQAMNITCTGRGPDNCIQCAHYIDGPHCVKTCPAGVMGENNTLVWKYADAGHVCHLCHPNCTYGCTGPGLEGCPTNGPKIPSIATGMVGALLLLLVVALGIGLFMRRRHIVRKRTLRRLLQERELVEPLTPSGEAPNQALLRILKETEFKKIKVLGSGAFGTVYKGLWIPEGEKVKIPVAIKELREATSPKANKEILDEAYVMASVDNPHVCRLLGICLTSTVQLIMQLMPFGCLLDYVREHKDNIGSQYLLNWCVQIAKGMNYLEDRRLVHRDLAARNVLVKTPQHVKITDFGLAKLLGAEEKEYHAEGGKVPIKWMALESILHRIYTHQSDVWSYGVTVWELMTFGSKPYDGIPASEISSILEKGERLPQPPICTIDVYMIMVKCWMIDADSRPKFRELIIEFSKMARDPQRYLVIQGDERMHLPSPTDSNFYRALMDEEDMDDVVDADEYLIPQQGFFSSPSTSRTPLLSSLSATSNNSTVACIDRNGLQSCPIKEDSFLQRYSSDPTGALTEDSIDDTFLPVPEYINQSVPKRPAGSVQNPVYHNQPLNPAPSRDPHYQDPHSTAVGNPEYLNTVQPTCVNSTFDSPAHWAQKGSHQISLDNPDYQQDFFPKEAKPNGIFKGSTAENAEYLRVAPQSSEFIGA

For the molecule `CN(C(=O)CN1CCOCC1)c1ccc2sc3c(-c4cccc5c(=O)cc(N6CC7CCC(C6)O7)oc45)cccc3c2c1` [NU5455], the inhibition (usually the change of the read-out against control, counted positive when it falls) at 1 µM is -3.3%.
